Experimental data: US20090320166A1, “Synergistic Insecticide And Fungicidal Mixtures” (BAYER CROPSCIENCE AG, priority 2006, published 2009)

What was measured:
[1] = tested on: Myzus persicae; assay: Myzus persicae test (cabbage leaf dip); type: in vivo; details: 200 ppm
Excerpt: Solvent: 7 parts by weight of dimethylformamide

[2] = tested on: Phaedon cochleariae; assay: Phaedon cochleariae larvae test (cabbage leaf dip); details: Table B1, 200 ppm, mustard beetle larvae on cabbage leaves

Cn1cc(C(=O)Nc2ccccc2C2CC2C2CC2)c(C(F)F)n1 (stereo not drawn) [compound (I-4)]
0%: Kill in % after 1d ([1]; Table A1, green peach aphid on cabbage leaves, after 1 d) | Kill in % after 6d ([1]; Table A2, after 6 d) | Kill in % after 6d [2]
